The results in this text go back to US20230348483A1, “PREPARATION METHOD FOR (S)-2-AMINO-3-(4-(2,3-DIMETHYLPYRIDIN-4-YL)PHENYL)METHYL PROPIONATE DIACID SALT” (Hangzhou Zhongmei Huadong Pharmaceutical Co., Ltd., priority 2020, published 2023).

A short description of series [1]: Stability test of salt forms at temperature 40° C. and humidity 75% (HPLC chemical purity, physical properties). It counts as physicochemical. The note with it: for Appearance / Hygroscopicity / Purity (%): 40° C./75% placement for 1 day; for Purity (%) / Initial purity: chemical purity by HPLC; for Initial purity: before placement. The protocol:
Compare the properties of the desired salts of compound V, includes but not limits to as herein oxalate or phosphate, to hydrochloride. Conduct the stability test under the condition of temperature 40° C. and humidity 75%, measure the chemical purity by HPLC and observe the physical properties.

The nature of series [2]: Hygroscopicity and deterioration of compound IV as found by the researchers. It counts as physicochemical. The conditions noted are these: solid, storage and transport.

`COC(=O)[C@@H](N)Cc1ccc(-c2ccnc(C)c2C)cc1.O=C(O)C(=O)O.O=C(O)C(=O)O` [Phosphate, methyl (S)-2-amino-3-[4-(2,3-dimethylpyridin-4-yl)-phenyl]-propionate diacid salt]: in series [1], the Appearance entry was “White to light”, the Hygroscopicity entry was “Slight”, the “Purity (%)” value is reported as 96.1% and the Initial purity worked out at 98.5.

For `COC(=O)[C@@H](N)Cc1ccc(-c2ccnc(C)c2C)cc1.O=C(O)C(=O)O.O=C(O)C(=O)O` [Oxalate, methyl (S)-2-amino-3-[4-(2,3-dimethylpyridin-4-yl)-phenyl]-propionate diacid salt], in series [1], the Appearance result is “White powder”, the Hygroscopicity entry was “Almost none”, the “Purity (%)” value is reported as 99.0% and the Initial purity was 99.1.

Take `COC(=O)[C@@H](N)Cc1ccc(-c2ccnc(C)c2C)cc1.Cl.Cl` [Hydrochloride, methyl (S)-2-amino-3-[4-(2,3-dimethylpyridin-4-yl)-phenyl]-propionate dihydrochloride]: in series [1], the Appearance result is “Yellow solid”, the Hygroscopicity result is reported as “Strong”, the “Purity (%)” value turned out to be 87.5% and the Initial purity was determined as 95.1. In series [2], the “Deterioration (storage stability)” value was “easily to be deteriorated” and the Hygroscopicity result is on record as “highly hygroscopic”.
